From the OPERA property sets (Mansouri et al. 2018) come the findings set out here.

With `C[Si](C)(C)O[Si](C)(C)O[Si](C)(C)O[Si](C)(C)O[Si](C)(C)C`, the boiling point stood at 232 °C, the log10 vapour pressure (mmHg) was -0.991 and the melting point is -80 °C.

Turning to `c1ccc2c(c1)ccc1c2ccc2c3ccccc3ccc21`, the boiling point worked out at 519 °C and the melting point stood at 368 °C.

Take `CC1(C)CCCCC1=O`: the boiling point is 172 °C and the melting point was -20.5 °C.

With `O=Cc1ccc([N+](=O)[O-])cc1[N+](=O)[O-]`, the melting point worked out at 72 °C.

As to `Clc1cc(Cl)c(Cl)c(-c2cc(Cl)cc(Cl)c2Cl)c1`, the log10 Koc (L/kg) was 6.48.

Compound `CCNC(=O)NCC` had a boiling point of 263 °C and a melting point of 112 °C.

For `CCc1ccccc1Cl`, the boiling point was found to be 178 °C and the melting point was -82.7 °C.

With `Oc1c(Cl)cccc1Cl`, the boiling point was determined as 220 °C, the log10 vapour pressure (mmHg) was -1.48, the melting point was determined as 68.5 °C and the ready biodegradability result is on record as “not readily biodegradable”.

With `CC(=O)OC[C@H]1OC(OC(C)=O)[C@H](OC(C)=O)[C@@H](OC(C)=O)[C@@H]1OC(C)=O` (stereo partly drawn), the melting point was found to be 124 °C.

`CCOS(=O)(=O)c1ccc(C)cc1` registered a melting point of 34.5 °C.

`CC(=O)c1ccc[nH]1` registered a boiling point of 220 °C and a melting point of 90 °C.

`CCCCCCCCCCCCCCCCCC#N` gave a boiling point of 362 °C and a melting point of 41 °C.

Take `CC(C)COCc1ccccc1`: the boiling point was determined as 212 °C.

With `CC(=O)c1ccc(Br)s1`, the melting point was 94.5 °C.

Regarding `CCOP(=S)(OCC)Oc1ncn(-c2ccccc2)n1`, the log10 vapour pressure (mmHg) was -5.54.

The compound `CCOC(=O)c1cccs1` gave a boiling point of 218 °C.

As to `O=C(O)C(c1ccccc1)c1ccccc1`, the melting point was 147 °C.

The compound `O=C1c2ccccc2-c2ccc(O)cc21` yielded a melting point of 205 °C.

As for `c1cc[n+]2c(c1)-c1cccc[n+]1CC2`, the log10 Koc (L/kg) amounted to 2.7 and the log10 vapour pressure (mmHg) was -8.

Consider `CCCC(C)C(C)(C)O` (stereo not drawn), for which the boiling point came to 160 °C.

`CC(=O)C(=O)c1ccccc1` displayed a boiling point of 222 °C.

With `O=c1n(-c2ccccc2)c(=O)n(-c2ccccc2)c(=O)n1-c1ccccc1`, the melting point came to 285 °C.

`O=C1CCC(=O)N1c1ccccc1` had a boiling point of 400 °C and a melting point of 156 °C.

The compound `N#CC1(N=NC2(C#N)CCCCC2)CCCCC1` gave a melting point of 116 °C.

As to `Nc1cccc2ccc(O)cc12`, the melting point stood at 206 °C.

`Cc1cc(Cl)n(C)n1` returned a boiling point of 158 °C.

Compound `O=[N+]([O-])c1ccc(CO)cc1` had a melting point of 96.5 °C.

For the compound `c1ccc2sc(SSc3nc4ccccc4s3)nc2c1`, the melting point turned out to be 180 °C and the ready biodegradability result was “not readily biodegradable”.

The compound `CC(=O)c1ccc2ccccc2c1O` had a melting point of 101 °C.

`CCC(C)C(C)C(C)=O` (stereo not drawn): the boiling point was 158 °C.

Turning to `NC(=O)OCCCl`, the melting point was 75.5 °C.

For `FC(F)(F)C1(F)C(F)(F)C(F)(F)C(F)(F)C(F)(C(F)(F)F)C1(F)F` (stereo not drawn), the boiling point stood at 102 °C and the melting point is -70 °C.

The compound `OC(c1ccccc1)(c1ccccc1)C(O)(c1ccccc1)c1ccccc1` gave a melting point of 182 °C.

Consider `Cc1c([N+](=O)[O-])cc2c(c1[N+](=O)[O-])C(C)(C)CC2(C)C`, for which the melting point was 132 °C.

On to `Nc1nc(=O)[nH]cc1F`, for which the melting point was determined as 296 °C.

On to `CCCCC(C)(C)O`, for which the boiling point came out at 143 °C and the log10 vapour pressure (mmHg) turned out to be 0.317.

`CCC(Cl)Cl` came in with a boiling point of 88.1 °C and a log10 vapour pressure (mmHg) of 1.83.

As to `c1ccc(C2CCCCC2)cc1`, the boiling point worked out at 240 °C, the log10 vapour pressure (mmHg) is -1.4 and the melting point was 7.3 °C.

Regarding `C=CC1CO1` (stereo not drawn), the boiling point came to 68 °C and the melting point is -135 °C.

With `C(=Nc1ccccc1)c1ccccc1`, the boiling point stood at 310 °C and the melting point is 54 °C.

Regarding `NNC(=O)c1ccccc1`, the melting point was determined as 115 °C.

For `FCOC(F)(F)C(F)F`, the boiling point amounted to 53.6 °C and the log10 vapour pressure (mmHg) turned out to be 2.37.

The compound `BrC=CBr` had a boiling point of 110 °C, a log10 Koc (L/kg) of 1.65, a log10 vapour pressure (mmHg) of 1.49 and a melting point of -37.5 °C. Also, the ready biodegradability result is recorded as “not readily biodegradable”.

Compound `O=C1c2ccccc2C(=O)C1C(=O)C(c1ccccc1)c1ccc(Cl)cc1` (stereo not drawn) gave a log10 vapour pressure (mmHg) of -9.12 and a melting point of 140 °C.

`CC(N)CCN` (stereo not drawn) came in with a boiling point of 140 °C.

`C[Se][Se]C`: the boiling point was 156 °C and the log10 vapour pressure (mmHg) was found to be 0.455.

On to `CCCCOCCOP(=O)(OCCOCCCC)OCCOCCCC`, for which the melting point was -70 °C and the ready biodegradability entry was “not readily biodegradable”.

Consider `CS(=O)(=O)OCCCNCCCOS(C)(=O)=O`, for which the melting point came out at 116 °C.

In turn, `CC(=O)O[C@H]1C[C@@H]2CC[C@@H]3[C@H](CC[C@@]4(C)[C@H]3C[C@H]([N+]3(C)CCCCC3)[C@@H]4OC(C)=O)[C@@]2(C)C[C@@H]1N1CCCCC1.[Br-]` gave a melting point of 228 °C.

Regarding `COc1cccc(C(=O)NN)c1`, the melting point stood at 94 °C.

Regarding `COC1CCCCC1`, the boiling point worked out at 133 °C and the melting point was -74.4 °C.

With `O=c1occcc1O`, the melting point stood at 93.8 °C.

`Cc1cccc(NC(N)=O)c1` came in with a log10 Koc (L/kg) of 1.56.

As a reminder, the boiling point is the temperature of boiling at a given pressure. Broadly, the melting point is the temperature of the solid-liquid transition.
